Source: US20250213547A1, “METHODS OF TREATING NEUROLOGICAL DISEASES” (priority 2022, published 2025)

Text: The datasets from the clinical trials described above were used in a population PK and PK/PD modeling analysis. Three PK samples were excluded from the analyses because their baseline values were over the limit of quantification. The ELEKTRA dataset contained 69 single-dose and 270 steady-state dose events. Individual variables from those studies were included in the dataset to determine significant covariates and their effect size. Subject variables included the study ID, patient ID, treatment, health status, and DEE disease type. Baseline demographic variables included age, body weight, body mass index, gender, race, and Chinese or Asian ethnic origin. Baseline laboratory variables included aspartate aminotransferase (AST), gamma-glutamyl transferase (GGT), alkaline phosphatase (ALP), bilirubin, creatinine, albumin, alpha-1-acid glycoprotein (A1-AGLP), estimated glomerular filtration rate (eGFR), and creatinine clearance (CrCl)) (see formulas in example 12). […] Another variable was the type of antiepileptic drugs patients were on concomitantly during the trial.
The dataset included 2193 observations from 173 subjects. Both PK and PK/PD parameters were analyzed as a mixed-effects population model using the computer program NONMEM. A mixed-effects model takes into account fixed value parameters and random-effect parameters. The first stage of the analysis began with using only data obtained from the oral solution studies in a structural and statistical base model to account for concentration changes over time and for between and within subject variability. Several different structural model types were tested and the structure of the omega complex was optimized. Omega, expressed as random effects variance, represents the difference between an individual's parameter value and the population value and describes the distribution of between subject variability across the population. The linear two-compartment model incorporates delayed first-order absorption from oral administration. Model parameters were absorption lag time (ALAG1), bioavailability (F1), elimination clearance (CL), absorption rate constant (KA), central volume (V2), inter-compartmental clearance (Q), and peripheral volume (V3). Random effects were estimated for F1, KA, Q, and V3. The omega matrix was restricted to a diagonal structure, wherein between parameter correlations are ignored. A combined additive and proportional residue error model was utilized to broadly reflect […].
The second stage of the analysis added data collected from the tablet formulation studies in adults.
The third stage of the analysis added the pediatric data collected from the ELEKTRA study. A range of different formulations and administration procedures were used for the pediatric patients, including swallowed mini-tablets, tablets, and crushed tablets administered through a gastrostomy tube. […] Next variables were screened separately by correlating the individual random effects with the base model. An F-test was used to determine the significance of the individual random effects with and without the variable. Candidates were further screened using a standard forward inclusion (α<0.05), backward deletion (α<0.01) procedure.

[1] = between subject variation as standard deviation

Q: For O=C(c1cccnc1-c1ccncc1)N1CCC(O)(Cc2ccccc2)CC1 [soticlestat], which “simulated change in AUC with twice the dosage” value (FIG. 21, reference ELEKTRA patient 100 mg BID) is on record?
A: Its value is 130%.

Q: And the “F1: BSV” value [1]?
A: Its value is 0.538.

Q: And the “KA: BSV” value [1]?
A: Its value is 1.1.

Q: And the “Q: BSV” value [1]?
A: Its value is 0.369.

Q: And the “V3: BSV” value [1]?
A: The value was 0.559.

Q: What about the “ALAG1: Non-OS formulation (%)” value (covariate effect on ALAG1) of the same compound?
A: The value was 25.2%.

Q: What about the “CL: Patient (%)” value (covariate effect on CL) of the same compound?
A: The value was −24.4%.

Q: And the “F1: A1-AGLP exponent” value (covariate effect on F1)?
A: The value was 0.739.

Q: And the “F1: weight exponent” value (covariate effect on F1)?
A: Its value is −0.516.

Q: What about the “F1: Dose exponent” value (covariate effect on F1, fixed) of the same compound?
A: The value was 0.204.

Q: What about the “KA: BMI exponent” value (covariate effect on KA) of the same compound?
A: Its value is 2.52.

Q: And the “KA: Strong Inducer (%)” value (covariate effect on KA)?
A: The value was −73.7%.

Q: What about the “KA: non-OS formulation (%)” value (covariate effect on KA) of the same compound?
A: The value was −45.7%.

Q: And the “KA: Dose exponent” value (covariate effect on KA, fixed)?
A: Its value is −0.753.

Q: And the “Q: Dose exponent” value (covariate effect on Q, fixed)?
A: The value was −0.218.

Q: What about the “V3: Asian (%)” value (covariate effect on V3) of the same compound?
A: Its value is −39.4%.

Q: And the “V3: eGFI exponent” value (covariate effect on V3)?
A: Its value is −0.469.

Q: What about the “V3: Dose exponent” value (covariate effect on V3, fixed) of the same compound?
A: Its value is −0.214.

Q: And the ALAG1 typical value (final population PK model)?
A: Its ALAG1 typical value is 0.131 h.

Q: What about the “F1: BSV explained by A1-AGLP (%)” value (final population PK model) of the same compound?
A: Its value is 33.6%.

Q: What about the KA typical value (final population PK model) of the same compound?
A: The KA typical value was 7.49 h⁻¹.

Q: And the Q typical value (final population PK model)?
A: The Q typical value was 1.16 L/h.

Q: And the V2 typical value (final population PK model)?
A: The V2 typical value was 2.99 L.

Q: What about the V3 typical value (final population PK model) of the same compound?
A: The V3 typical value was 7.51 L.

Q: What about the F1 typical value (final population PK model, fixed) of the same compound?
A: The F1 typical value was 0.0216.

Q: And the CL typical value (human)?
A: Its CL typical value is 4.31 L/h.

Q: And the “estimated weight exponent on steady state AUC” value (human)?
A: The value was 0.516.

Q: What about the “typical value for CL/F” value (human) of the same compound?
A: The value was 150 L/h.

Q: And the “typical value for V2/F (central volume distribution)” value (population model)?
A: Its value is 138.43 L.
